# Results from PubChem BioAssay (NCI).
#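 All cell lines were grown in 96-well plates and treated with compound for 48 hours. At the GI50, growth is halved. TGI marks complete inhibition of growth.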
# Legend:
# Assay in all cases: DTP human tumour cell line panel, 48 h
# A498 renal = test system: A498 renal
# SNB-19 CNS = test system: SNB-19 CNS
# M14 melanoma = test system: M14 melanoma
# SF-295 CNS = test system: SF-295 CNS
# BT-549 breast = test system: BT-549 breast
# DU-145 prostate = test system: DU-145 prostate
# TK-10 renal = test system: TK-10 renal
# ACHN renal = test system: ACHN renal
# OVCAR-3 ovarian = test system: OVCAR-3 ovarian
# OVCAR-8 ovarian = test system: OVCAR-8 ovarian
# UACC-62 melanoma = test system: UACC-62 melanoma
# U251 CNS = test system: U251 CNS
# COLO 205 colon = test system: COLO 205 colon
# EKVX NSCLC = test system: EKVX NSCLC
# RPMI-8226 leukemia = test system: RPMI-8226 leukemia
# RXF 393 renal = test system: RXF 393 renal
# UO-31 renal = test system: UO-31 renal
# SF-268 CNS = test system: SF-268 CNS
# HCT-15 colon = test system: HCT-15 colon
# NCI-H522 lung = test system: NCI-H522 lung
# SK-MEL-2 melanoma = test system: SK-MEL-2 melanoma
# HCT-116 colon = test system: HCT-116 colon
# HOP-62 NSCLC = test system: HOP-62 NSCLC
# OVCAR-5 ovarian = test system: OVCAR-5 ovarian
# HCC-2998 colon = test system: HCC-2998 colon
# CCRF-CEM leukemia = test system: CCRF-CEM leukemia
# UACC-257 melanoma = test system: UACC-257 melanoma
# KM12 colon = test system: KM12 colon
# HT29 colon = test system: HT29 colon
# IGROV1 ovarian = test system: IGROV1 ovarian
# SNB-75 CNS = test system: SNB-75 CNS
# MCF7 breast = test system: MCF7 breast
# OVCAR-4 ovarian = test system: OVCAR-4 ovarian
# 786-0 renal = test system: 786-0 renal
# MALME-3M melanoma = test system: MALME-3M melanoma
# SK-MEL-28 melanoma = test system: SK-MEL-28 melanoma
# SN12C renal = test system: SN12C renal
# PC-3 prostate = test system: PC-3 prostate
# A549 NSCLC = test system: A549 NSCLC
# K-562 leukemia = test system: K-562 leukemia
# NCI-H23 lung = test system: NCI-H23 lung
# NCI-H226 lung = test system: NCI-H226 lung
# HOP-92 NSCLC = test system: HOP-92 NSCLC
# HS 578T breast = test system: HS 578T breast
# CAKI-1 renal = test system: CAKI-1 renal
# T-47D breast = test system: T-47D breast
# HL-60(TB) leukemia = test system: HL-60(TB) leukemia
# MOLT-4 leukemia = test system: MOLT-4 leukemia
# SK-MEL-5 melanoma = test system: SK-MEL-5 melanoma
# SF-539 CNS = test system: SF-539 CNS
# MDA-N = test system: MDA-N
# LOX IMVI melanoma = test system: LOX IMVI melanoma
# MDA-MB-231 breast = test system: MDA-MB-231 breast
# SR leukemia = test system: SR leukemia
# SK-OV-3 ovarian = test system: SK-OV-3 ovarian
# NCI-H460 lung = test system: NCI-H460 lung
# NCI/ADR-RES ovarian = test system: NCI/ADR-RES ovarian
# MDA-MB-435 = test system: MDA-MB-435
# SW-620 colon = test system: SW-620 colon
smiles,measurement,setting,value
C=C1C[C@@H](O)[C@@H](Br)C(C)(C)[C@]12CCC(C)(Cl)C(Br)C2 (stereo not given in full),TGI,A498 renal,97.5 µM
same,TGI,SNB-19 CNS,> 31.6 µM
same,TGI,M14 melanoma,> 100 µM
same,TGI,SF-295 CNS,> 85.3 µM
same,TGI,BT-549 breast,> 100 µM
same,TGI,DU-145 prostate,> 100 µM
same,TGI,TK-10 renal,> 100 µM
same,TGI,ACHN renal,> 87.5 µM
same,TGI,OVCAR-3 ovarian,37.4 µM
same,TGI,OVCAR-8 ovarian,> 100 µM
same,TGI,UACC-62 melanoma,> 100 µM
same,TGI,U251 CNS,> 55.9 µM
same,TGI,COLO 205 colon,> 33.7 µM
same,TGI,EKVX NSCLC,33.4 µM
same,TGI,RPMI-8226 leukemia,> 100 µM
same,TGI,RXF 393 renal,> 76.1 µM
same,TGI,UO-31 renal,> 100 µM
same,TGI,SF-268 CNS,> 77.4 µM
same,TGI,HCT-15 colon,> 100 µM
same,TGI,NCI-H522 lung,44.1 µM
same,TGI,SK-MEL-2 melanoma,32.3 µM
same,TGI,HCT-116 colon,> 100 µM
same,TGI,HOP-62 NSCLC,> 65.2 µM
same,TGI,OVCAR-5 ovarian,19.8 µM
same,TGI,HCC-2998 colon,35.3 µM
same,TGI,CCRF-CEM leukemia,> 100 µM
same,TGI,UACC-257 melanoma,> 70.7 µM
same,GI50,KM12 colon,0.793 µM
same,TGI,KM12 colon,3.8 µM
same,TGI,HT29 colon,> 100 µM
same,TGI,IGROV1 ovarian,46.4 µM
same,TGI,SNB-75 CNS,> 71.5 µM
same,TGI,MCF7 breast,> 79.3 µM
same,TGI,OVCAR-4 ovarian,> 100 µM
same,TGI,786-0 renal,> 78.2 µM
same,TGI,MALME-3M melanoma,59.4 µM
same,TGI,SK-MEL-28 melanoma,> 100 µM
same,TGI,SN12C renal,36 µM
same,TGI,PC-3 prostate,8.17 µM
same,TGI,A549 NSCLC,> 86 µM
same,TGI,K-562 leukemia,> 100 µM
same,TGI,NCI-H23 lung,> 74.9 µM
same,TGI,NCI-H226 lung,> 84.8 µM
same,TGI,HOP-92 NSCLC,> 73.6 µM
same,TGI,HS 578T breast,> 100 µM
same,TGI,CAKI-1 renal,> 90.4 µM
same,TGI,T-47D breast,> 100 µM
same,TGI,HL-60(TB) leukemia,80.8 µM
same,TGI,MOLT-4 leukemia,> 100 µM
same,TGI,SK-MEL-5 melanoma,23.4 µM
same,TGI,SF-539 CNS,32.3 µM
same,TGI,MDA-N,> 59.8 µM
same,TGI,LOX IMVI melanoma,49.5 µM
same,TGI,MDA-MB-231 breast,> 85.2 µM
same,TGI,SR leukemia,> 100 µM
same,TGI,SK-OV-3 ovarian,> 100 µM
same,TGI,NCI-H460 lung,> 84.5 µM
same,TGI,NCI/ADR-RES ovarian,98 µM
same,TGI,MDA-MB-435,> 71.2 µM
same,TGI,SW-620 colon,> 100 µM
